Reference: patent US11192899B2 (MERCK PATENT GMBH, priority 2017, dated 2021)
Read-outs that look alike come from different tables or passages of the source.

What was measured:
[1] = biological target: T1, A2B receptors (Homo sapiens, UniProt P29275); conditions: cited from earlier work
T1 sequence (P29275 1-332): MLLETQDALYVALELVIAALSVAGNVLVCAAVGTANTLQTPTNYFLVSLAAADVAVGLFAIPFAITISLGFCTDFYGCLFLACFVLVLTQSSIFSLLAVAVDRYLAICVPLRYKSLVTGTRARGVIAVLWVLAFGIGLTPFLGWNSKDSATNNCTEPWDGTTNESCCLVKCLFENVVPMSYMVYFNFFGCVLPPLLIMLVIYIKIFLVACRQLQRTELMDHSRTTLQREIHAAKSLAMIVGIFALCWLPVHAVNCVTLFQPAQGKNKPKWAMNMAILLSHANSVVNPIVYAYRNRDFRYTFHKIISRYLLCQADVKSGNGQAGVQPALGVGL

[2] = system: mouse Pan T cells; test: rescue of cytokine (IL-2, IFN-γ) secretion of CD3/CD28-activated mouse Pan T cells inhibited by CGS-21680; assay type: cell-based; conditions: for IC50: Mus musculus, T-cell
Text: Adenosine (Ado) in tumor microenvironment can inhibit T cell activity by signaling through A2A receptors and suppress cytokine secretion by T cells. […] Potential A2A antagonists or A2A/A2B dual antagonists can rescue T cells from this inhibition. Herein, we describe the in vitro system we established using Pan T cells from mouse spleens to screen potential A2A antagonists or A2A/A2B dual antagonists for their activity. The method described involves the use of CD3/CD28 pre-coated beads to stimulate Pan T cells purified from mouse splenocytes, combined with the addition of A2A agonist along with potential A2A or A2A/A2B dual antagonists to evaluate potentiation of T cell cytokine production.
Briefly, mouse Pan T cells are purified from spleens of BALB/c mice using Pan T cell isolation kit Mouse II (MACS Miltenyi biotech Cat #Order no. 130-095-130) according to manufacturer's protocol. The purified T cells are seeded in Nunc™ 96-Well Polystyrene Round Bottom Microwell Plates in RPMI medium with 10% heat inactivated fetal bovine serum. The cells are rested at 37° C. for 1 h before activating with CD3/CD28 pre-coated beads (Dynabeads™ Mouse T-Activator CD3/CD28; Cat #11456D). After 30 min the cells are treated with varying doses of test antagonist(s). […] After 24 h incubation IL-2 levels in the supernatants and after 48 h incubation IFN-γ levels in the supernatants are measured by ELISAs according to manufacturer's protocol (R&D systems Cat #DY402 (IL-2); DY485 (IFN-γ)). Once the concentrations are calculated, the difference of cytokine concentration of DMSO control and agonist alone control is calculated (called Δ) and the percentage of rescue by each concentration of antagonist is calculated by using Microsoft Excel. These percentages of cytokine rescue in a dose dependent manner of antagonist is plotted in GraphPad Prism software and IC50 is calculated.

[3] = pharmacokinetics in mouse after single intravenous and oral administration; conditions: for Feces iv [%]: iv @ 0.2, excretion as % of dose; for Vd / clearance / half-life / Cmax: female, mouse; for Vd / clearance / half-life: 0.2 mg/kg; for Cmax: 1 mg/kg
Description: Female Wistar rats/mice (n=6) received either a single intravenous (bolus) injection or an oral administration (by gavage) of the tested compound.
The concentrations of the compounds in plasma, feces were quantified using an UPLC method with tandem mass spectrometric detection (LC-MS/MS) previously developed at the ‘Institute of Drug Metabolism and Pharmacokinetics’. The LCMS/MS system consisted of a Waters Acquity UPLC coupled to an AB Sciex mass spectrometer API 5500 Q-trap. […] The detection of the compounds was performed using multiple reaction monitoring in the positive ionization mode. Plasma samples were spiked with internal standard (20 μl) and the analyte was extracted from the matrix using tertiary-butyl methyl ether (tBME). The organic phase was evaporated to dryness under a stream of nitrogen. The residue was dissolved in acetonitrile/0.1% formic acid for LC-MS/MS analysis. Feces samples were homogenized with 4-times their volume of an ethanol/water mixture (4:1, v/v). Aliquots of the aqueous-ethanolic extracts were spiked with internal standard, diluted with acetonitrile/water (1:1, v/v) and directly injected into the LC-MS/MS system.
Pharmacokinetic parameters Cmax and tmax were taken from the observed data. […] AUC values were calculated by non-compartmental analysis using the linear up/log down method. Numerical data for mean plasma concentrations and derived pharmacokinetic parameters were rounded to 3 significant digits for presentation.

[4] = biological target: T2, human A2A receptor (Homo sapiens, UniProt P29274); test: cAMP HTRF functional assay, recombinant HEK293 cells expressing human A2A receptor, agonist NECA; assay type: cell-based
T2 construct: expressed in transfected cells; host or cells: HEK293
Description: (§1) The functional activities of human A2A, A2B, A1 and A3 receptors were determined by quantification of cAMP, being the second messenger for adenosine receptors.
(§2) Obtained raw data were normalized against the inhibitor control and the neural control (DMSO) and the normalized data were fitted using GeneData software.

[5] = biological target: T3, human A3 receptor (Homo sapiens, UniProt P0DMS8); test: cAMP HTRF functional assay, recombinant CHO cells expressing human A3 receptor, forskolin and agonist IB-MECA; assay type: cell-based
T3 construct: expressed in transfected cells; host or cells: CHO
T3 sequence (P0DMS8 1-318): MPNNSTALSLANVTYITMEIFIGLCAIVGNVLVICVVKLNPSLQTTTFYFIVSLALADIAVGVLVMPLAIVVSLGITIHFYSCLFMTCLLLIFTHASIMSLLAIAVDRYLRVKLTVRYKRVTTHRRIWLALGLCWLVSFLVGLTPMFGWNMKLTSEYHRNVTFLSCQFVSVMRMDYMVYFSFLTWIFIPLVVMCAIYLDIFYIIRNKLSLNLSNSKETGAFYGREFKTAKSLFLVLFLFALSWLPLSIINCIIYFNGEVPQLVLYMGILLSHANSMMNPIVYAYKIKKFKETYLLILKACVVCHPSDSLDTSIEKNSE
Description: as §1
(§3) For human A1 and A3 receptors, recombinant CHO cells, expressing either A1 or A3-receptor, were used. As both receptors couple to Gi proteins, the assay protocol was adapted:
(§4) Cells were seeded into 384-well plates, forskolin, test compounds and agonists (CPA for A1- and IB-MECA for A3-receptor) were added. After 30 min incubation, HTRF reagents (cAMP dynamic 2, Cis Bio) were added and the cellular cAMP levels were determined using the ENVISION (Perkin Elmer) plate reader.
as §2

[6] = biological target: T1, A2B receptors; test: cAMP HTRF functional assay, recombinant HEK293 cells expressing human A2B receptor, agonist NECA; assay type: cell-based; set-up: expressed in transfected cells; host or cells: HEK293
Description: as §1, §2

[7] = biological target: T4, human A1 receptor (Homo sapiens, UniProt P30542); test: cAMP HTRF functional assay, recombinant CHO cells expressing human A1 receptor, forskolin and agonist CPA; assay type: cell-based
T4 construct: expressed in transfected cells; host or cells: CHO
T4 sequence (P30542 1-326): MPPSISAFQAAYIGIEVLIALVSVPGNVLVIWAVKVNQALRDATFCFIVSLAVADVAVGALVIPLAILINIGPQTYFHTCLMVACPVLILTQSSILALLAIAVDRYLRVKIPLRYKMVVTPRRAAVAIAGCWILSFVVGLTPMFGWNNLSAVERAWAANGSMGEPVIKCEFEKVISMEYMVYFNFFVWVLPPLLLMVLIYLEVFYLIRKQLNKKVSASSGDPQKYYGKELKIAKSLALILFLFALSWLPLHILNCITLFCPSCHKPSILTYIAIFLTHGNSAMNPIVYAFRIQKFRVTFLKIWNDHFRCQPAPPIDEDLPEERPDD
Description: as §1, §3, §4, §2

[8] = 24 h, read-out: Mouse T-Cell IL-2

T2 sequence (P29274 whole entry): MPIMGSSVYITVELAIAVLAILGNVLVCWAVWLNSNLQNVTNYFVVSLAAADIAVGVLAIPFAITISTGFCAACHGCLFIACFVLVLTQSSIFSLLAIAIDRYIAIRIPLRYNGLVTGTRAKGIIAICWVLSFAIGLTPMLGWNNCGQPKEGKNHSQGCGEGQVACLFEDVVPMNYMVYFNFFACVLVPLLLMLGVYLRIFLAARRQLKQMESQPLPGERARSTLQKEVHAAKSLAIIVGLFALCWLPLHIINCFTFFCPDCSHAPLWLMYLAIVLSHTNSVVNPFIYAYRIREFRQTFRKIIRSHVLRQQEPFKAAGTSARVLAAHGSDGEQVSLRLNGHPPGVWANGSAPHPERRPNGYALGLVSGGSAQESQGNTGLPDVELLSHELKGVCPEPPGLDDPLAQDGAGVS

Row | SMILES | Feces iv [%] ([3]; PK data in mouse) | IC50 [4] | IC50 [5] | IC50 [6] | IC50 [7] | Vd ([3]; plasma, iv) | clearance ([3]; plasma, iv) | also measured
1 | CCCn1c(=O)c2[nH]c(-c3ccc(S(=O)(=O)O)cc3)nc2n(CCC)c1=O [DPSPX, 1,3-dipropyl-8-sulphophenylxanthine] | – | – | – | – | – | – | – | affinity for A2B receptors [1]: mid to high nM range
2 | COc1ccc(N2CCOCC2)c2sc(NC(=O)N3CCC(C)(O)CC3)nc12 [Tozadenant, reference compound] | 23 @ 0.2% | – | – | – | – | – | – | Mouse IFN-γ [nM] ([2]; IFN-γ rescue, 48 h, CGS-21680 1 μM, BALB/c Pan T cells): NA (< 50% rescue); Mouse T-Cell IL-2 [nM] ([2]; IL-2 rescue, 24 h, CGS-21680 1 μM, BALB/c Pan T cells): NA (< 50% rescue); CL ([3]; PK data in mouse, iv): 1478 mL/min/kg; Vss [L/kg] ([3]; PK data in mouse, iv): 2,03 L/kg; t1/2 [h] ([3]; PK data in mouse, iv): 0,184 h; CMax (iv) @ 1 mg/kg ([3]; PK data in mouse, iv): 337 ng/mL
3 | O=c1[nH]c(=O)c2nc3ccccc3nc2[nH]1 [alloxazine, 2,4-dioxobenzopteridine] | – | – | – | – | – | – | – | affinity for A2B receptors [1]: mid to high nM range
4 | COc1ccc(-c2ccccc2)c2ncc(NC(=O)N3CCC(C)(O)CC3)nc12 [compound 2, 4-Hydroxy-4-methyl-piperidine-1-carboxylic acid (8-methoxy-5-phenyl-quinoxalin-2-yl)-amide] | 12.5 @ 0.2% | < 100 nM | > 1000 nM | > 1000 nM | > 1000 nM | 1.13 L/kg | 5.65 mL/min/kg | IC50 [2, 8]: 400 nM; IC50 ([2]; 48 h, read-out: Mouse IFN-γ): 600 nM; half-life ([3]; plasma, iv): 2.37 h; Cmax ([3]; plasma, iv): 732 ng/mL
5 | COc1ccc(C2CCOCC2)c2ncc(NC(=O)N3CCC(C)(O)CC3)nc12 [compound 5] | 4.2 @ 0.2% | < 100 nM | > 1000 nM | > 1000 nM | > 1000 nM | 1.24 L/kg | 19.7 mL/min/kg | CMax (iv) @ 1 mg/kg ([3]; PK data in mouse, iv): 908 ng/mL; half-life ([3]; in vivo, iv): 0.92 h
6 | C#CCC1(O)CCN(C(=O)Nc2cnc3c(C4CCOCC4)ccc(OC)c3n2)CC1 [compound 10] | 1.8 @ 0.2% | < 100 nM | > 1000 nM | > 1000 nM | < 1000 nM | 0.811 L/kg | 18.2 mL/min/kg | half-life ([3]; plasma, iv): 0.55 h; Cmax ([3]; plasma, iv): 1090 ng/mL
7 | COc1ncc(-c2ccccc2)c2ncc(NC(=O)N3CCC(C)(O)CC3)nc12 [compound 27, 4-Hydroxy-4-methyl-piperidine-1-carboxylic acid (5-methoxy-8-phenyl-pyrido[3,4-b]pyrazin-3-yl)-amide] | 6.2 @ 0.2% | < 100 nM | > 1000 nM | > 1000 nM | < 1000 nM | 0.82 L/kg | 3.78 mL/min/kg | IC50 [2, 8]: 375 nM; IC50 ([2]; 48 h, read-out: Mouse IFN-γ): 333 nM; half-life ([3]; plasma, iv): 2.56 h; Cmax ([3]; plasma, iv): 983 ng/mL
8 | COCCOc1cccc(-c2ccc(OC)c3nc(NC(=O)C4CC4)cnc23)c1 [compound 147, N-{8-methoxy-5-[3-(2-methoxyethoxy)phenyl]quinoxalin-2-yl}cyclopropanecarboxamide] | – | < 10 nM | < 1000 nM | < 100 nM | < 1000 nM | – | – | –
9 | COCCOc1cccc(-c2ccc(OC)c3nc(NC(=O)c4cnc(C)o4)cnc23)c1 [compound 148, N-{8-methoxy-5-[3-(2-methoxyethoxy)phenyl]quinoxalin-2-yl}-2-methyl-1,3-oxazole-5-carboxamide] | – | < 10 nM | > 1000 nM | < 100 nM | < 1000 nM | – | – | –
10 | COCCOc1cccc(-c2ccc(OC)c3nc(NC(=O)c4cnc(C)s4)cnc23)c1 [compound 151, N-{8-methoxy-5-[3-(2-methoxyethoxy)phenyl]quinoxalin-2-yl}-2-methyl-1,3-thiazole-5-carboxamide] | – | < 100 nM | > 1000 nM | > 1000 nM | < 1000 nM | – | – | –
11 | COc1ncc(-c2ccc(OC)c3nc(NC(=O)C4CC4)cnc23)cn1 [compound 156, N-[8-methoxy-5-(2-methoxypyrimidin-5-yl)quinoxalin-2-yl]cyclopropanecarboxamide] | – | < 100 nM | > 1000 nM | > 1000 nM | < 1000 nM | – | – | –
12 | CCCn1c(=O)[nH]c(=O)c2[nH]cnc21 [enprofylline, 3-n-propylxanthine] | – | – | – | – | – | – | – | affinity for A2B receptors [1]: mid to high nM range
